# Assay results published in US20090246787A1, “METHOD AND APPARATUS FOR DETERMINING CHEMOSENSITIVITY” (SYSMEX CORPORATION, priority 2008, published 2009).
# Like-named read-outs stand apart in the source and are kept apart here.
# Tests used:
# CDK1 [1] = conditions: 100 nM doxorubicin, 24 hours
# CAMA-1 cells = experiment: MTT living-cell assay, doxorubicin IC50; type: cell-based; conditions: Homo sapiens, 72 h, cultured 3 days with doxorubicin, MTT method, read-out: IC50 class (chemosensitivity estimated by IC50)
# Procedure: CAMA-1 cells were cultured in 5 vol % CO2 at 37° C., in an Eagle minimum essential medium containing Earle's BSS, 2 mM of L-glutamine, 1.0 mM of sodium pyruvate, 0.1 mM of nonessential amino acids, 1.5 g/L of sodium bicarbonate and 10% by mass of fetal bovine serum.
# (§1) Each of the breast cancer cell lines, that is, HS 578T cells, MDA-MB-435S cells, BT20 cells, CAMA-1 cells, T47D cells, MDA-MB-361 cells, UACC893 cells and BT474 cells, was diluted stepwise to produce 7 serial cell dilutions.
# (§2) The number of living cells in each of the cultures thus obtained was determined by an MTT method of using 3-(4,5-dimethylthiazol-2-yl)-2,5-diphenyl-2H-tetrazolium bromide. The number of living cells to be inoculated was established for each type of cell so as to enable the influence of the drug to be evaluated in the measurement range where the primary correlation between the number of cells in the serial dilution to be inoculated and the determined number of the living cells was kept high.
# Thereafter, the number of living cells in each of the cultures thus obtained was measured by the MTT method of using 3-(4,5-dimethylthiazol-2-yl)-2,5-diphenyl-2H-tetrazolium bromide. This measurement was conducted 4 times. […]
# BT20 cells = experiment: MTT living-cell assay, doxorubicin IC50; type: cell-based; conditions: Homo sapiens, BT-20, 72 h, cultured 3 days with doxorubicin, MTT method, read-out: IC50 class (chemosensitivity estimated by IC50)
# Procedure: (§3) Human breast cancer cell lines, that is, HS 578T cells (ATCC HTB-126R), MDA-MB-435s cells (ATCC HTB-129), BT20 cells (ATCC HTB-19), CAMA-1 cells (ATCC HTB-21), T47D cells (ATCC HTB-133), MDA-MB-361 cells (ATCC HTB-27), UACC893 cells (ATCC CRL-1902) and BT474 cells (ATCC HTB-20) were purchased from American Type Culture Collection (ATCC) and cultured under culture conditions recommended by ATCC, as follow.
# BT-20 cells were cultured in 5 vol % CO2 at 37° C., in an Eagle minimum essential medium containing Earle's BSS, 2 mM of L-glutamine, 1.0 mM of sodium pyruvate, 0.1 mM of nonessential amino acids, 1.5 g/L of sodium bicarbonate and 10% by mass of fetal bovine serum. […]
# as §2
# (§4) Thereafter, the number of living cells in each of the cultures thus obtained was measured by the MTT method of using 3-(4,5-dimethylthiazol-2-yl)-2,5-diphenyl-2H-tetrazolium bromide. […]
# MDA-MB-361 cells = experiment: MTT living-cell assay, doxorubicin IC50; type: cell-based; conditions: Homo sapiens, 72 h, cultured 3 days with doxorubicin, MTT method, read-out: IC50 class (chemosensitivity estimated by IC50)
# [2] = used generally in chemotherapy; cited from earlier work
# HS 578T cells = experiment: MTT living-cell assay, doxorubicin IC50; type: cell-based; conditions: Homo sapiens, 72 h, cultured 3 days with doxorubicin, MTT method, read-out: IC50 class (chemosensitivity estimated by IC50)
# Procedure: as §3
# HS 578T cells were cultured in 5 vol % CO2 at 37° C., in a Dulbecco's modified Eagle medium containing 4 mM of L-glutamine, 10% by mass of fetal bovine serum and 0.01 mg/L of bovine insulin, with glucose at a final concentration of 4.5 g/L and sodium bicarbonate at a final concentration of 1.5/L. […]
# as §2, §4
# CDK1 [3] = conditions: 100 nM doxorubicin, 24 hours; remark: listed apart in the source
# BT474 cells = experiment: MTT living-cell assay, doxorubicin IC50; type: cell-based; conditions: Homo sapiens, BT-474, 72 h, cultured 3 days with doxorubicin, MTT method, read-out: IC50 class (chemosensitivity estimated by IC50)
# Procedure: BT-474 cells were cultured in 5 vol % CO2 at 37° C., in a Dulbecco's modified medium containing 10% by mass of fetal bovine serum.
# as §1, §2
# Thereafter, the number of living cells in each of the cultures thus obtained was measured by the MTT method of using 3-(4,5-dimethylthiazol-2-yl)-2,5-diphenyl-2H-tetrazolium bromide. This measurement was conducted 4 times.
# On the basis of the determined number of living cells, the concentration of doxorubicin (IC50) at which the ratio of the number of living cells in the culture not treated with doxorubicin to the number of living cells in the culture treated with doxorubicin became 50% was determined.
# MDA-MB-435S cells = experiment: MTT living-cell assay, doxorubicin IC50; type: cell-based; conditions: Homo sapiens, 72 h, cultured 3 days with doxorubicin, MTT method, read-out: IC50 class (chemosensitivity estimated by IC50)
# UACC893 cells = experiment: MTT living-cell assay, doxorubicin IC50; type: cell-based; conditions: Homo sapiens, UACC-893, 72 h, cultured 3 days with doxorubicin, MTT method, read-out: IC50 class (chemosensitivity estimated by IC50)
# T47D cells = experiment: MTT living-cell assay, doxorubicin IC50; type: cell-based; conditions: Homo sapiens, 72 h, cultured 3 days with doxorubicin, MTT method, read-out: IC50 class (chemosensitivity estimated by IC50)
# Procedure: as §3
# T-47D cells were cultured in 5 vol % CO2 at 37° C., in an RPMI 1640 medium containing 2 mM of L-glutamine, 1.0 mM of HEPES, 1.0 mM of sodium pyruvate, 4.5 g/L of glucose, 1.5 g/L of sodium bicarbonate, 10% by mass of fetal bovine serum and 0.2 unit/mL of bovine insulin. […]
# as §2, §4
compound,measurement,setting,value
COc1cccc2c1C(=O)c1c(O)c3c(c(O)c1C2=O)C[C@@](O)(C(=O)CO)C[C@@H]3O[C@H]1C[C@H](N)[C@H](O)[C@H](C)O1 [doxorubicin],difference of CDK1 activity level (not treated − treated with doxorubicin),CDK1 [1]; BT20 cells,great difference
same,ratio of CDK1 activity level (treated with doxorubicin / not treated),CDK1 [1]; BT20 cells,low
same,difference of CDK1 activity level (not treated − treated with doxorubicin),CDK1 [1]; BT474 cells,"a little difference, or a minus difference"
same,ratio of CDK1 activity level (treated with doxorubicin / not treated),CDK1 [1]; BT474 cells,high
same,difference of CDK1 activity level (not treated − treated with doxorubicin),CDK1 [1]; CAMA-1 cells,great difference
same,ratio of CDK1 activity level (treated with doxorubicin / not treated),CDK1 [1]; CAMA-1 cells,low
same,difference of CDK1 activity level (not treated − treated with doxorubicin),CDK1 [1]; HS 578T cells,great difference
same,ratio of CDK1 activity level (treated with doxorubicin / not treated),CDK1 [1]; HS 578T cells,low
same,difference of CDK1 activity level (not treated − treated with doxorubicin),CDK1 [1]; MDA-MB-361 cells,"a little difference, or a minus difference"
same,ratio of CDK1 activity level (treated with doxorubicin / not treated),CDK1 [1]; MDA-MB-361 cells,high
same,difference of CDK1 activity level (not treated − treated with doxorubicin),CDK1 [1]; MDA-MB-435S cells,great difference
same,ratio of CDK1 activity level (treated with doxorubicin / not treated),CDK1 [1]; MDA-MB-435S cells,low
same,difference of CDK1 activity level (not treated − treated with doxorubicin),CDK1 [1]; T47D cells,"a little difference, or a minus difference"
same,ratio of CDK1 activity level (treated with doxorubicin / not treated),CDK1 [1]; T47D cells,high
same,difference of CDK1 activity level (not treated − treated with doxorubicin),CDK1 [1]; UACC893 cells,"a little difference, or a minus difference"
same,ratio of CDK1 activity level (treated with doxorubicin / not treated),CDK1 [1]; UACC893 cells,high
same,IC50,CAMA-1 cells,< 200 nM
same,IC50,BT20 cells,< 200 nM
same,IC50,MDA-MB-361 cells,> 200 nM
same,effective blood concentration,[2],about 200 nM
same,IC50,HS 578T cells,< 200 nM
same,difference of CDK1 specific activity (not treated − treated with doxorubicin),CDK1 [3]; BT20 cells,high
same,ratio of CDK1 specific activity (treated with doxorubicin / not treated),CDK1 [3]; BT20 cells,low
same,difference of CDK1 specific activity (not treated − treated with doxorubicin),CDK1 [3]; BT474 cells,"a little difference, or a minus difference"
same,ratio of CDK1 specific activity (treated with doxorubicin / not treated),CDK1 [3]; BT474 cells,high
same,difference of CDK1 specific activity (not treated − treated with doxorubicin),CDK1 [3]; CAMA-1 cells,high
same,ratio of CDK1 specific activity (treated with doxorubicin / not treated),CDK1 [3]; CAMA-1 cells,low
same,difference of CDK1 specific activity (not treated − treated with doxorubicin),CDK1 [3]; HS 578T cells,high
same,ratio of CDK1 specific activity (treated with doxorubicin / not treated),CDK1 [3]; HS 578T cells,low
same,difference of CDK1 specific activity (not treated − treated with doxorubicin),CDK1 [3]; MDA-MB-361 cells,"a little difference, or a minus difference"
same,ratio of CDK1 specific activity (treated with doxorubicin / not treated),CDK1 [3]; MDA-MB-361 cells,high
same,difference of CDK1 specific activity (not treated − treated with doxorubicin),CDK1 [3]; MDA-MB-435S cells,high
same,ratio of CDK1 specific activity (treated with doxorubicin / not treated),CDK1 [3]; MDA-MB-435S cells,low
same,difference of CDK1 specific activity (not treated − treated with doxorubicin),CDK1 [3]; T47D cells,"a little difference, or a minus difference"
same,ratio of CDK1 specific activity (treated with doxorubicin / not treated),CDK1 [3]; T47D cells,high
same,difference of CDK1 specific activity (not treated − treated with doxorubicin),CDK1 [3]; UACC893 cells,"a little difference, or a minus difference"
same,ratio of CDK1 specific activity (treated with doxorubicin / not treated),CDK1 [3]; UACC893 cells,high
same,IC50,BT474 cells,> 200 nM
same,IC50,MDA-MB-435S cells,< 200 nM
same,IC50,UACC893 cells,> 200 nM
same,IC50,T47D cells,> 200 nM
